The target of this experiment is T1, human cloned 5-HT6 receptors (Homo sapiens, UniProt P50406).
T1 construct: expressed in transfected cells; host or cells: Hela cells
The experiment can be described thus: 5-HT6 binding affinity, [3H]-LSD displacement on Hela cell membranes. Conditions: [3H]-LSD 3.0 nM; membranes of Hela cells expressing human cloned 5-HT6 receptors; 120 min at room temperature. The protocol:
The affinity of test compounds for the serotonin 5-HT6 receptor is evaluated in the following manner. Cultured Hela cells expressing human cloned 5-HT6 receptors are harvested and centrifuged at low speed (1,000×g) for 10.0 min to remove the culture media. The harvested cells are suspended in half volume of fresh physiological phosphate buffered saline solution and recentrifuged at the same speed. This operation is repeated. The collected cells are then homogenized in ten volumes of 50 mM Tris.HCl (pH 7.4) and 0.5 mM EDTA. The homogenate is centrifuged at 40,000×g for 30.0 min and the precipitate is collected. The obtained pellet is resuspended in 10 volumes of Tris.HCl buffer and recentrifuged at the same speed. The final pellet is suspended in a small volume of Tris.HCl buffer and the tissue protein content is determined in aliquots of 10-25 μl volumes. Bovine Serum Albumin is used as the standard in the protein determination according to the method described in Lowry et al., J. Biol. Chem., 193:265 (1951). The volume of the suspended cell membranes is adjusted to give a tissue protein concentration of 1.0 mg/ml of suspension. The prepared membrane suspension (10 times concentrated) is aliquoted in 1.0 ml volumes and stored at −70° C. until used in subsequent binding experiments.
Binding experiments are performed in a 96 well microtiter plate format, in a total volume of 200 μl. […] The test compounds are added in 20.0 μl volume.
The reaction is allowed to proceed in the dark for 120 min at room temperature, at which time, the bound ligand-receptor complex is filtered off on a 96 well unifilter with a Packard Filtermate® 196 Harvester. The bound complex caught on the filter disk is allowed to air dry and the radioactivity is measured in a Packard TopCount® equipped with six photomultiplier detectors, after the addition of 40.0 μl Microscint®-20 scintillant to each shallow well. The unifilter plate is heat-sealed and counted in a PackardTopCount® with a tritium efficiency of 31.0%.
Binding in the presence of varying concentrations of test compound is expressed as a percentage of specific binding in the absence of test compound. The results are plotted as log % bound versus log concentration of test compound. […] A linear regression line of data points is plotted, from which the IC50 value is determined and the Ki value is determined based upon the following equation: Ki=IC50/(1+L/KD) where L is the concentration of the radioactive ligand used and KD is the dissociation constant of the ligand for the receptor, both expressed in nM.

T1 sequence (P50406 whole entry): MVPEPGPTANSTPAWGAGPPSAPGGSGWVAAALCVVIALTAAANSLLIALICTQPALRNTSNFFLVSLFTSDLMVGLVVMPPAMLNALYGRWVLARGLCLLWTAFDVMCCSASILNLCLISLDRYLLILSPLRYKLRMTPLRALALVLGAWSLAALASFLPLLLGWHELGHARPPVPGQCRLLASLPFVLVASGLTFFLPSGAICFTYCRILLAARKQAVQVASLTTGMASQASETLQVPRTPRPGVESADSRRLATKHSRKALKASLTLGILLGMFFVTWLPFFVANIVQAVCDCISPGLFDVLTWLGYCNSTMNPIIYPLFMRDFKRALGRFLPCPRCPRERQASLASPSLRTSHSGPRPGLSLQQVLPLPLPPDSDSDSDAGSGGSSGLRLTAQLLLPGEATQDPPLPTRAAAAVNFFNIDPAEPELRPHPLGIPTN

The molecule `CN1CCC(c2cn(S(=O)(=O)c3ccc(F)cc3)c3ccccc23)C1` (stereo not drawn) [Example 4, 1-(4-fluorophenylsulfonyl)-3-(1-methyl-pyrrolidin-3-yl)-1H-indole] registered a Ki of 2 nM.
For `CN1CCC(c2cn(S(=O)(=O)c3ccc(Cl)cc3)c3ccccc23)C1` (stereo not drawn) [Example 6, 1-(4-chlorophenylsulfonyl)-3-(1-methylpyrrolidin-3-yl)-1H-indole], the Ki was found to be 1 nM.
In the case of `CN1CCC(c2cn(S(=O)(=O)c3ccc4ccccc4c3)c3ccccc23)C1` (stereo not drawn) [Example 8, 1-(naphth-2-ylsulfonyl)-3-(1-methylpyrrolidin-3-yl)-1H-indole], the affinity corresponds to a Ki of 3 nM.
In the case of `CN1CCC(c2cn(S(=O)(=O)c3ccc(N)cc3)c3ccccc23)C1` (stereo not drawn) [Example 9, 1-(4-aminophenylsulfonyl)-3-(1-methylpyrrolidin-3-yl)-1H-indole] it was 1 nM; in that of `COc1ccc(S(=O)(=O)n2cc(C3CCN(C)C3)c3ccccc32)cc1OC` (stereo not drawn) [Example 10, 1-(3,4-dimethoxyphenylsulfonyl)-3-(1-methylpyrrolidin-3-yl)-1H-indole], 5 nM.
`CN1CCC(c2cn(S(=O)(=O)c3ccc(Cl)c(Cl)c3)c3ccccc23)C1` (stereo not drawn) [Example 11, 1-(3,4-dichlorophenylsulfonyl)-3-(1-methylpyrrolidin-3-yl)-1H-indole] showed a Ki of 3 nM.
Turning to `CN1CCC(c2cn(S(=O)(=O)c3cc(Cl)c(Cl)s3)c3ccccc23)C1` (stereo not drawn) [Example 12, 1-[(4,5-dichlorothien-2-yl)sulfonyl]-3-(1-methyl-pyrrolidin-3-yl)-1H-indole], affinity was put at a Ki of 4 nM.
Molecule `CN1CCC(c2cn(S(=O)(=O)c3ccccc3Br)c3ccccc23)C1` (stereo not drawn) [Example 13, 1-(2-bromophenylsulfonyl)-3-(1-methylpyrrolidin-3-yl)-1H-indole] came in with a Ki of 1 nM.
In turn, `CN1CCC(c2cn(S(=O)(=O)c3ccc(I)cc3)c3ccccc23)C1` (stereo not drawn) [Example 16, 1-(4-iodophenylsulfonyl)-3-(1-methylpyrrolidin-3-yl)-1H-indole] showed a Ki of 1 nM.
With `CN1CCC(c2cn(S(=O)(=O)c3ccccc3I)c3ccccc23)C1` (stereo not drawn) [Example 17, 1-(2-iodophenylsulfonyl)-3-(1-methylpyrrolidin-3-yl)-1H-indole], affinity was put at a Ki of 2 nM.
On to `Cc1ccc(S(=O)(=O)n2cc(C3CCN(Cc4ccccc4)C3)c3ccccc32)cc1` (stereo not drawn) [Example 18, 3-(1-benzylpyrrolidin-3-yl)-1-(4-methylphenylsulfonyl)-1H-indole], for which the Ki stood at 8 nM.
Regarding `Nc1ccc(S(=O)(=O)n2cc(C3CCN(Cc4ccccc4)C3)c3ccccc32)cc1` (stereo not drawn) [Example 20, 1-(4-aminophenylsulfonyl)-3-(1-benzylpyrrolidin-3-yl)-1H-indole], the affinity, expressed as Ki, was 1 nM.
`O=S(=O)(c1ccc(Cl)c(Cl)c1)n1cc(C2CCN(Cc3ccccc3)C2)c2ccccc21` (stereo not drawn) [Example 21, 3-(1-benzylpyrrolidin-3-yl)-1-(3,4-dichlorophenyl-sulfonyl)-1H-indole]: the Ki was 15 nM.
With `O=S(=O)(c1ccccc1Br)n1cc(C2CCN(Cc3ccccc3)C2)c2ccccc21` (stereo not drawn) [Example 22, 3-(1-benzylpyrrolidin-3-yl)-1-(2-bromophenylsulfonyl)-1H-indole], the affinity, expressed as Ki, was 14 nM.
`Cc1nc(N)sc1S(=O)(=O)n1cc(C2CCN(Cc3ccccc3)C2)c2ccccc21` (stereo not drawn) [Example 23, 5-[3-(1-benzylpyrrolidin-3-yl)-indole-1-sulfonyl]-4-methyl-thiazol-2-ylamine] showed a Ki of 3 nM.
As to `O=S(=O)(c1ccc(Br)s1)n1cc(C2CCN(Cc3ccccc3)C2)c2ccccc21` (stereo not drawn) [Example 24, 3-(1-benzylpyrrolidin-3-yl)-1-[(5-bromothien-2-yl)sulfonyl]-1H-indole], the Ki stood at 9 nM.
Turning to `O=S(=O)(c1ccccc1)n1cc(C2CCCNC2)c2ccccc21` (stereo not drawn) [Example 31, 1-Benzenesulfonyl-3-piperidin-3-yl-1H-indole], the Ki amounted to 2 nM.
The molecule `CC(C)c1ccc(S(=O)(=O)n2cc(C3CCCNC3)c3ccccc32)cc1` (stereo not drawn) [Example 32, 1-(4-isopropyl-benzenesulfonyl)-3-piperidin-3-yl-1H-indole] displayed a Ki of 5 nM.
`O=S(=O)(c1ccc(Cl)s1)n1cc(C2CCCNC2)c2ccccc21` (stereo not drawn) [Example 33, 1-(5-chloro-thiophene-2-sulfonyl)-3-piperidin-3-yl-1H-indole] had a Ki of 3 nM.
Take `O=S(=O)(c1cccc(Cl)c1)n1cc(C2CCCNC2)c2ccccc21` (stereo not drawn) [Example 34, 1-(3-chloro-benzenesulfonyl)-3-piperidin-3-yl-1H-indole]: the affinity corresponds to a Ki of 2 nM.
Consider `O=S(=O)(c1ccc(F)c(F)c1)n1cc(C2CCCNC2)c2ccccc21` (stereo not drawn) [Example 35, 1-(3,4-difluoro-benzenesulfonyl)-3-piperidin-3-yl-1H-indole], for which the Ki was found to be 7 nM.
The molecule `COc1ccc(S(=O)(=O)n2cc(C3CCCNC3)c3ccccc32)cc1` (stereo not drawn) [Example 37, 1-(4-methoxy-benzenesulfonyl)-3-piperidin-3-yl-1H-indole] had a Ki of 10 nM.
In the case of `O=S(=O)(c1ccc(C(F)(F)F)cc1)n1cc(C2CCCNC2)c2ccccc21` (stereo not drawn) [Example 38, 1-(4-trifluoromethy-benzenesulfonyl)-3-piperidin-3-yl-1H-indole] it was 10 nM; in that of `Cc1ccc(S(=O)(=O)n2cc(C3CCCNC3)c3ccccc32)cc1Cl` (stereo not drawn) [Example 39, 1-(3-chloro-4-methyl-benzenesulfonyl)-3-piperidin-3-yl-1H-indole], 6 nM.
In the case of `O=S(=O)(c1ccc2ccccc2c1)n1cc(C2CCCNC2)c2ccccc21` (stereo not drawn) [Example 41, 1-(2-naphthylenesulfonyl)-3-piperidin-3-yl-1H-indole] it was 8 nM; in that of `O=S(=O)(c1ccc(Cl)s1)n1cc(C2CCCNC2)c2cccnc21` (stereo not drawn) [Example 47, 1-(5-chloro-thiophene-2-sulfonyl)-3-piperidin-3-yl-1H-pyrrolo[2,3-b]pyridine], 7 nM.
For `O=S(=O)(c1cccc(Cl)c1)n1cc(C2CCCNC2)c2cccnc21` (stereo not drawn) [Example 48, 1-(3-chloro-benzenesulfonyl)-3-piperidin-3-yl-1H-pyrrolo[2,3-b]pyridine], the Ki was found to be 6 nM.

The Ki is a measure of affinity in units of concentration, obtained from inhibition or displacement.
